# According to US20010018073A1, “Transdermal compositions with enhanced skin penetration properties” (JENAPHARM GMBH & CO., KG, priority 1997, published 2001):
# Tests used:
# [1] = T2 relaxation times of destructuring and structuring agents in water; format: physicochemical; conditions: solute in water, concentration 0.5 mol/l
# [2] = substance on its own versus ANP employed as accelerant; cited from earlier work
SMILES,T2 relaxation time [1] [ms],permeation through the skin relative to ANP [2] [factor]
NC(N)=O [Urea],145,–
OC[C@H]1O[C@@](CO)(O[C@H]2O[C@H](CO)[C@@H](O)[C@H](O)[C@H]2O)[C@@H](O)[C@@H]1O [Sucrose],18.7,–
"O=[N+]([O-])O[C@H]1CO[C@H]2[C@@H]1OC[C@H]2O[N+](=O)[O-] [ISDN, isosorbide dinitrate]",–,10
